What was measured:
GABA receptor complex = settings: Tarnawa et al. 1989; cited from earlier work
[1] = system: N-acetyltransferse NAT2 isozymes; test: Previous clinical trial: N-acetylation of talampanel by NAT2; assay type: in vivo, human
Text: N-acetylation was identified as one metabolic pathway of talampanel, catalyzed by N-acetyltransferse NAT2 isozymes. A genetic polymorphism in the NAT2 gene affects the acetylation rate. […] The three common slow acetylator alleles identified are NAT2*5A, NAT2*6A and NAT2*7A. The NAT2*5 alleles have the greatest reductions in metabolic activation while NAT2*6 alleles have more moderate reductions and NAT2*7 alleles have the smallest, but yet significant, reductions. The frequency of NAT2 slow acetylators (about 2-10% in Asian, 60-70% in Caucasians, 30-40% in Africans) and NAT2 fast acetylators (about 40-60% in Asian, 3-15% in Caucasian, 10-25% in Africans) varies markedly with ethnicity.

mouse model of ALS = settings: Van Damme et al. 2003; cited from earlier work
motor neurons [2] = settings: in vitro; cited from earlier work
subjects with ALS [3] = test: Example 3: another clinical trial according to the procedure of Example 1; assay type: in vivo, human
Protocol: (§1) A subject is assessed for study eligibility at a screening visit (one to 4 weeks prior to baseline). Subjects who are found eligible to participate in the study are randomized in a 2:1:2 ratio into one of the following three treatment groups based on a randomization scheme with blocks stratified by center: • 1. 50 mg (25 mg capsule×2) talampanel t.i.d. (150 mg daily) • 2. 25 mg (12.5 mg capsule×2) talampanel t.i.d. (75 mg daily) • 3. Placebo
(§2) After undergoing randomization subjects receive their first dose of study treatment on site. There are two possible escalation periods to reach maximal dose of 6 capsules per day, as follows: • Screening Period Up to 4 weeks but not less than 1 week. The period between screening visit and baseline visit. During this time period all relevant data for the assessment of subjects eligibility should be collected and reviewed i.e. lab results, ECG, medical history etc. • First Escalation Period: A period of 4 to 6 weeks, following screening period. This period starts at baseline visit, following randomization; • Second Escalation Period: A period of 2 weeks, this period starts at week 10 visit and ends at week 12 visit. • Maintenance Period: A time period of 46 to 48 weeks, following the first escalation period, starting after reaching maximal achieved dose in the first escalation period. During this period oral administration of talampanel 25 mg t.i.d., 50 mg t.i.d. (or maximal achieved dose) or matching oral placebo is maintained.
(§3) The first escalation period is a period of 4-6 weeks, following randomization. The dose escalation plan for the 25 mg and 50 mg t.i.d. dose levels, respectively, is as follows: • First week: from baseline visit to week 1 (telephone visit): Three capsules (37.5 mg or 75 mg daily) one each a.m., mid-day and p.m. dosing. • Second week: from week 1 (telephone visit) to week 2 (telephone visit): Four capsules (50 mg or 100 mg daily) one each a.m. & mid-day, two at p.m. dosing. • Third week: from week 2 (telephone visit) to week 3 (telephone visit): Five capsules (62.5 mg or 125 mg daily) two at a.m. one in mid-day and two at p.m. dosing. • Fourth week: from week 3 (telephone visit) to week 4 on site visit: Six capsules (75 mg or 150 mg daily) two at each a.m., mid-day and p.m. dosing.
(§4) At in-clinic visits the following are assessed: • Revised ALS Functional Rating Scale (ALSFRS-R) (screening, baseline, weeks 4-6, 12, 26, 40, 52/ET and unscheduled) • Slow VC (screening, baseline, weeks 4-6, 12, 26, 40, 52/ET and unscheduled) • Manual Muscle Testing (MMT) (baseline, weeks 12, 26, 40, 52/ET and unscheduled) • ALS-Specific Quality of life (ALSSQoL) scale (baseline, weeks 26, 52/ET) [US and Canada Only] • EuroQol-5 Dimensions (EQ-5D) health outcomes scale (baseline, weeks 4-6, 12, 26, 40 and 52/ET) • Health Care Resource Utilization Questionnaire for ALS (baseline, weeks 4-6, 12, 26, 40, 52/ET) • Caregiver burden questionnaire, Zarit Burden Interview (ZBI) [caregiver] (Baseline, weeks 12, 26, 40, 52/ET) • Laboratory (screening, baseline, weeks 4-6, 12, 26, 40, 52/ET and unscheduled) • ECG (screening, baseline (3 times), weeks 4-6, 12, 26, 40, 52/ET and unscheduled) • Physical examination (screening, baseline, weeks 4-6, 12, 26, 40 and 52/ET and unscheduled) • Vital signs and weights (screening, baseline, weeks 4-6, 12, 26, 40 and 52/ET and unscheduled) • Check of concomitant medications, AEs and compliance • Pharmacokinetics (PK): Safety Pharmacokinetics (PK) blood samples are taken after at least 3 days on the maximal achieved dose at end of first escalation period at week 4-6 (pre-dose, anytime in the range of 0.5-2 hours post-dose and anytime in the range of 2-4 hours post dose with at least 1 hour difference between the 2 post dose samples) and at week 12 (pre-dose, anytime in the range of 0.5-2 hours post-dose and anytime in the range of 2-4 hours post dose with at least 1 hour difference between the 2 post dose samples). […]

[4] = system: AMPA subtype of glutamate excitatory amino acid receptors; settings: AMPA antagonist; cited from earlier work
ALS = test: Pilot study of talampanel in ALS, 50 mg t.i.d. vs placebo; assay type: in vivo, human; settings: placebo −10.2, p=0.08, positive trend
Protocol: A pilot study of talampanel in ALS compared 50 mg t.i.d of talampanel to placebo. The study found a positive trend in the ALSFRS scores of talampanel treated relative to placebo (average score −7.1 vs. −10.2, p=0.08).

subjects with ALS [5] = test: Example 4: another clinical trial according to the procedure of Example 1; assay type: in vivo, human
Protocol: as §1, §2, §3, §4

[6] = Prior clinical trials with talampanel: safety and tolerability; settings: previous clinical trials
Protocol: (§5) In this study, the daily dose is increased by 12.5 mg or 25 mg daily each week to reach 75 mg or 150 mg daily (25 mg t.i.d. or 50 mg t.i.d.) respectively, at the 4th to 6th week or at the 11th to 12th week if needed.

subjects with ALS [7] = test: Example 2: another clinical trial according to the procedure of Example 1; assay type: in vivo, human
Protocol: as §1, §2, §3, §4

[8] = human, in vivo
Protocol: as §5

motor neurons [9] = settings: organotypic spinal cord slice model; cited from earlier work
ALS patients = settings: cited from earlier work
[10] = 50 mg t.i.d., statistically significant
[11] = talampanel group, dose not stated, vs placebo

CC1=NN=C(c2ccc(N)cc2)c2cc3c(cc2C1)OCO3 [GYKI-52466]
1,4-benzodiazepine (diazepam-like) activity at the GABA receptor complex (GABA receptor complex): no classical 1,4-benzodiazepine (that is, “diazepam-like”) activity

CC(=O)Nc1ccc(C2=NN(C(C)=O)C(C)Cc3cc4c(cc32)OCO4)cc1 (stereo not drawn) [NAC talampanel]
measurable levels of NAC talampanel by acetylator status ([1]; human, in vivo): seen primarily in fast acetylator subjects, but not in slow acetylators

NS(=O)(=O)c1cccc2c1c([N+](=O)[O-])cc1nc(O)c(O)nc12 [NBQX]
prolonged survival in ALS mice (mouse model of ALS): 14 days
kainate induced calcium entry into motor neurons (motor neurons [2]): blocked

CC(=O)N1N=C(c2ccc(N)cc2)c2cc3c(cc2C[C@H]1C)OCO3 [talampanel]
decrease in the slopes of ALSFRS-R as compared to placebo (subjects with ALS [3]; 25 mg t.i.d.): 25%
risk of either death, tracheostomy, or permanent assisted ventilation (subjects with ALS [3]; 25 mg t.i.d.): reduction
adjusted mean change from baseline in MMT across visits (subjects with ALS [3]; 50 mg t.i.d vs placebo): decrease
decrease in the change in ALSFRS-R from baseline to LOV in comparison to placebo (subjects with ALS [3]; 50 mg t.i.d.): 25%
risk of either death, tracheostomy, or permanent assisted ventilation (subjects with ALS [3]; 50 mg t.i.d.): decrease
adjusted mean change from baseline in Slow VC across visits (subjects with ALS [3]; 50 mg t.i.d. vs placebo): decrease
slopes of MMT (subjects with ALS [3]; 50 mg t.i.d. vs placebo): decrease
slopes of Slow VC (subjects with ALS [3]; 50 mg t.i.d. vs placebo): decrease
decrease in the slopes of ALSFRS-R as compared to placebo (subjects with ALS [3]; [10]): 25%
change in MMT from baseline to LOV (subjects with ALS [3]; [11]): decrease
potency relative to GYKI-52466 [4]: more potent
ALSFRS scores, average score (ALS): −7.1
decrease in the slopes of ALSFRS-R as compared to placebo (subjects with ALS [5]; 25 mg t.i.d.): 30%
risk of either death, tracheostomy, or permanent assisted ventilation (subjects with ALS [5]; 25 mg t.i.d.): reduction
decrease in the change in ALSFRS-R from baseline to LOV in comparison to placebo (subjects with ALS [5]; 50 mg t.i.d.): 30%
risk of either death, tracheostomy, or permanent assisted ventilation (subjects with ALS [5]; 50 mg t.i.d.): decrease
adjusted mean change from baseline in MMT across visits (subjects with ALS [5]; 50 mg t.i.d. vs placebo): decrease
adjusted mean change from baseline in Slow VC across visits (subjects with ALS [5]; 50 mg t.i.d. vs placebo): decrease
slopes of MMT (subjects with ALS [5]; 50 mg t.i.d. vs placebo): decrease
slopes of Slow VC (subjects with ALS [5]; 50 mg t.i.d. vs placebo): decrease
decrease in the slopes of ALSFRS-R as compared to placebo (subjects with ALS [5]; [10]): 30%
change in MMT from baseline to LOV (subjects with ALS [5]; [11]): decrease
adverse events when the dose is gradually increased over time [6]: reduced
N-acetylation dependence on NAT2 activity ([1]; metabolic pathway): highly dependent on NAT2 activity
decrease in the slopes of ALSFRS-R as compared to placebo (subjects with ALS [7]; 25 mg t.i.d.): 20%
risk of either death, tracheostomy, or permanent assisted ventilation (subjects with ALS [7]; 25 mg t.i.d.): reduction
decrease in the change in ALSFRS-R from baseline to LOV in comparison to placebo (subjects with ALS [7]; 50 mg t.i.d.): 20%
risk of either death, tracheostomy, or permanent assisted ventilation (subjects with ALS [7]; 50 mg t.i.d.): decrease
adjusted mean change from baseline in MMT across visits (subjects with ALS [7]; 50 mg t.i.d. vs placebo): decrease
adjusted mean change from baseline in Slow VC across visits (subjects with ALS [7]; 50 mg t.i.d. vs placebo): decrease
slopes of MMT (subjects with ALS [7]; 50 mg t.i.d. vs placebo): decrease
slopes of Slow VC (subjects with ALS [7]; 50 mg t.i.d. vs placebo): decrease
decrease in the slopes of ALSFRS-R as compared to placebo (subjects with ALS [7]; [10]): 20%
change in MMT from baseline to LOV (subjects with ALS [7]; [11]): decrease
safety and tolerability of the dose [8]: safe and tolerated

CC1(C)O[C@@H]2[C@@H](CO[C@@]3(COS(N)(=O)=O)OC(C)(C)O[C@@H]23)O1 [topiramate]
protection of motor neurons (motor neurons [9]): protected motor neurons
benefit in clinical trial in ALS patients (ALS patients; Cudkowicz et al. 2003): no benefit
adverse events in patients (ALS patients; including dramatic weight loss): significant adverse events
